Assay results taken from PMC7961763, “Semi-Synthesis of Harringtonolide Derivatives and Their Antiproliferative Activity” (Molecules, 2021).
Entries after “also recorded” stand apart in the source; their conditions may differ. Read-outs that look alike come from different tables or passages of the source.

Legend:
[1] = tested on: Huh-7 (human hepatoma cancer cell line); test: MTT assay, cytotoxicity against Huh-7; type: cell-based; settings: read-out: IC50 Huh-7
Description: (§1) All the synthesized derivatives of HO were tested for their antiproliferative activity against four human cancer cell lines, including the HCT-116, A375, A-549, and Huh-7 cell lines, using the MTT assay. Cisplatin was used as a positive control, while lead compound HO (1) was also included in the study for comparison.
(§2) HCT-116 (Human colon cancer cell line), A375 (human melanoma cancer cell line), A-549 (human lung adenocarcinoma cell line), Huh-7 (human hepatoma cancer cell line), and L-02 (normal hepatic cell line) were purchased from the Cell Bank of Shanghai Institute of Biochemistry and Cell Biology, Chinese Academy of Sciences (Shanghai, China). The cells were cultured in Dulbecco’s modified Eagle medium (DMEM; NY, USA), which were all supplemented with 10% fetal bovine serum (FBS; NY, USA) at 37 °C with 5% CO2.
(§3) The cytotoxic activity was evaluated using the MTT assay. Briefly, cells were seeded in 96-well plates at a density of 5 × 10^3 cells/well in 100 μL of DMEM medium at 37 °C for 24 h. Stock solutions of test compounds were prepared in DMSO at concentration of 50 mM, and twofold serial dilution with a culture medium was performed to obtain appropriate concentrations right before the assay. After that, the cells were incubated with synthetic derivatives or cisplatin as a positive control at the various concentrations (0.78125-50 μM) for 48 h. Then, 20 μL of 3-(4,5-Dimethylthiazol-2-yl)-2,5-diphenyltetrazolium bromide (MTT, Aladdin, Shanghai, China) solution (5 mg/mL in PBS) was added, and then the cells were incubated at 37 °C for an additional 4 h. The supernatant was removed, and 150 μL of dimethyl sulfoxide was added to dissolve the MTT formazan. The optical density (OD) was measured on a microplate reader (SpectraMax Plus 384, Molecular Devices, Sunnyvale, CA, USA) at a wavelength of 570 nm. The cytotoxic activity was expressed as the IC50 values. The above tests were repeated three times in parallel. Vehicle DMSO (0.1%) was used as a negative control.

[2] = tested on: HCT-116 (human colon cancer cell line); test: MTT assay, cytotoxicity against HCT-116; type: cell-based; settings: read-out: IC50 HCT-116
Description: as §1, §2, §3

[3] = tested on: A375 (human melanoma cancer cell line); test: MTT assay, cytotoxicity against A375; type: cell-based; settings: read-out: IC50 A375
Description: as §1, §2, §3

[4] = tested on: A-549 (human lung adenocarcinoma cell line); test: MTT assay, cytotoxicity against A549; type: cell-based; settings: read-out: IC50 A549
Description: as §1, §2, §3

[5] = tested on: HCT-116, A375, A549, and Huh-7 cells; test: MTT assay, statements for the whole panel of tested cancer cells; type: cell-based, human; settings: for cytotoxic activities against four tested cancer cells (result in words): HCT-116, A375, A549, Huh-7, tested up to 50 μM; for cytotoxic activities against three other cancer cell lines (result in words): cell lines other than A549; for IC50: Homo sapiens, all tested cancer cells (HCT-116, A375, A549, Huh-7), read-out: IC50 against tested cells
Description: as §1, §2, §3

[6] = Homo sapiens, Huh-7, 48 h, MTT, 48 h, Huh-7 cells
[7] = Homo sapiens, HCT-116, 48 h, MTT, 48 h, HCT-116 cells
[8] = Homo sapiens, A-375, 48 h, MTT, 48 h, A375 cells
[9] = Homo sapiens, A549, 48 h, MTT, 48 h, A549 cells

Row | SMILES | cytotoxic activities against four tested cancer cells (result in words) [5] | IC50 [1, 6] | IC50 [2, 7] | IC50 [3, 8] | IC50 [4, 9] | other results
1 | N.N.[Cl][Pt][Cl] [Cisplatin, reference compound] |  |  |  |  |  | IC50 ([1]; MTT, 48 h, Huh-7 cells): 15.04 ± 0.15 µM; IC50 ([2]; MTT, 48 h, HCT-116 cells): 4.48 ± 0.18 µM; IC50 ([3]; MTT, 48 h, A375 cells): 4.04 ± 0.23 µM; IC50 ([4]; MTT, 48 h, A549 cells): 8.53 ± 0.98 µM
2 | Cc1cc(=O)c(N)c2c3c1C1OC4C5OC(=O)C(CC2)(C4C)C3C15 [Compound 2, (3R,4aR,10aS,11S)-8-amino-5,11-dimethyl-2a,3,4a,9,10,10a1-hexahydro-1H-2,4-dioxa-3,10a-methanocyclohepta[bc]cyclopenta[jk]acenaphthylene-1,7(2a1H)-dione] | losing of cytotoxic activities | > 50 µM | > 50 µM | > 50 µM | > 50 µM | 
3 | CC(=O)Nc1c2c3c(c(C)cc1=O)C1OC4C5OC(=O)C(CC2)(C4C)C3C15 [Compound 3, N-((3R,4aR,10aS,11S)-5,11-dimethyl-1,7-dioxo-2a,2a1,3,4a,7,9,10,10a1-octahydro-1H-2,4-dioxa-3,10a-methanocyclohepta[bc]cyclopenta[jk]acenaphthylen-8-yl) acetamide] | losing of cytotoxic activities | > 50 µM | > 50 µM | > 50 µM | > 50 µM | 
4 | Cc1cc(=O)cc2c3c1C1OC4C5OC(O)C(CC2)(C4C)C3C15 [Compound 4, (1R,3R,4aR,10aS,11S)-1-hydroxy-5,11-dimethyl-2a,3,4a,9,10,10a1-hexahydro-1H-2,4-dioxa-3,10a-methanocyclohepta[bc]cyclopenta[jk]acenaphthylen-7(2a1H)-one] | losing of cytotoxic activities | > 50 µM | > 50 µM | > 50 µM | > 50 µM | 
5 | CC(=O)OC1OC2C3OC4c5c(C)cc(=O)cc6c5C(C42)C1(CC6)C3C [Compound 5, (1S,3R,4aR,10aS,11S)-5,11-dimethyl-7-oxo-2a,2a1,3,4a,7,9,10,10a1-octahydro-1H-2,4-dioxa-3,10a-methanocyclohepta[bc]cyclopenta[jk]acenaphthylen-1-yl acetate] | losing of cytotoxic activities | > 50 µM | > 50 µM | > 50 µM | > 50 µM | 
6 | Cc1ccc2c3c1C1OC4C5OC(=O)C(CC2=O)(C4C)C3C15 [Compound 7, (3R,4aR,9aS,10S)-5,10-dimethyl-2a,2a1,4a,9a1-tetrahydro-1H,3H-2,4-dioxa-3,9a-methanopentaleno [4,3,2,1-cdef]phenanthrene-1,8(9H)-dione] | inactive; also recorded: losing of cytotoxic activities | > 50 µM | > 50 µM | > 50 µM | > 50 µM | 
7 | Cc1cc(=O)cc2c3c1C1OC4C5OC(=O)C(CC2Br)(C4C)C3C15 [Compound 8, (3R,4aR,9R,10aS,11S)-9-bromo-5,11-dimethyl-2a,3,4a,9,10,10a1-hexahydro-1H-2,4-dioxa-3,10a-methanocyclohepta[bc]cyclopenta[jk]acenaphthylene-1,7(2a1H)-dione] |  | 30.8 ± 0.6 µM | 2.19 ± 0.23 µM | 3.4 ± 0.22 µM | 43.4 ± 1.08 µM | 
8 | COc1c2c3c(c(C)cc1=O)C1OC4C5OC(=O)C(CC2)(C4C)C3C15 [Compound 9, (3R,4aR,10aS,11S)-8-methoxy-5,11-dimethyl-2a,3,4a,9,10,10a1-hexahydro-1H-2,4-dioxa-3,10a-methanocyclohepta[bc]cyclopenta[jk]acenaphthylene-1,7(2a1H)-dione] | inactive; also recorded: losing of cytotoxic activities |  |  |  |  | IC50 ([1]; Homo sapiens, Huh-7, 48 h): > 50 µM; IC50 ([2]; Homo sapiens, HCT-116, 48 h): > 50 µM; IC50 ([3]; Homo sapiens, A-375, 48 h): > 50 µM; IC50 ([4]; Homo sapiens, A549, 48 h): > 50 µM
9 | CC(=O)OC1CC23C(=O)OC4C(OC5c6c(C)cc(=O)cc1c6C2C54)C3C [Compound 11a, (3R,4aR,9S,10aS,11S)-5,11-dimethyl-1,7-dioxo-2a,2a1,3,4a,7,9,10,10a1-octahydro-1H-2,4-dioxa-3,10a-methanocyclohepta[bc]cyclopenta[jk]acenaphthylen-9-yl acetate] |  | > 50 µM | 5.95 ± 0.45 µM | 30.1 ± 1.58 µM | 27.5 ± 0.89 µM | cytotoxic activities against three other cancer cell lines (result in words) [5]: weak cytotoxic activities
10 | Cc1cc(=O)cc2c3c1C1OC4C5OC(=O)C(CC2OC(=O)CCC(=O)O)(C4C)C3C15 [Compound 11b, 4-(((3R,4aR,9S,10aS,11S)-5,11-dimethyl-1,7-dioxo-2a,2a1,3,4a,7,9,10,10a1-octahydro-1H-2,4-dioxa-3,10a-methanocyclohepta[bc]cyclopenta[jk]acenaphthylen-9-yl)oxy)-4-oxobutanoic acid] |  | > 50 µM | > 50 µM | > 50 µM | > 50 µM | IC50 [5]: > 50 µM
11 | Cc1cc(=O)cc2c3c1C1OC4C5OC(=O)C(CC2OC(=O)c2ccco2)(C4C)C3C15 (centres unmarked) [Compound 11c] |  | > 50 µM | 11 ± 0.34 µM | 16.4 ± 1.92 µM | 23.2 ± 0.67 µM | cytotoxic activities against three other cancer cell lines (result in words) [5]: weak cytotoxic activities
12 | Cc1cc(=O)cc2c3c1C1OC4C5OC(=O)C(CC2OC(=O)c2ccccc2)(C4C)C3C15 [Compound 11d, (3R,4aR,9S,10aS,11S)-5,11-dimethyl-1,7-dioxo-2a,2a1,3,4a,7,9,10,10a1-octahydro-1H-2,4-dioxa-3,10a-methanocyclohepta[bc]cyclopenta[jk]acenaphthylen-9-yl benzoate] |  | > 50 µM | > 50 µM | > 50 µM | > 50 µM | IC50 [5]: > 50 µM
13 | Cc1cc(=O)cc2c3c1C1OC4C5OC(=O)C(CC2OC(=O)c2ccccn2)(C4C)C3C15 [Compound 11e, (3R,4aR,9S,10aS,11S)-5,11-dimethyl-1,7-dioxo-2a,2a1,3,4a,7,9,10,10a1-octahydro-1H-2,4-dioxa-3,10a-methanocyclohepta[bc]cyclopenta[jk]acenaphthylen-9-yl picolinate] |  | > 50 µM | 5.47 ± 0.27 µM | 7.08 ± 0.42 µM | 18 ± 4.18 µM | cytotoxic activities against three other cancer cell lines (result in words) [5]: weak cytotoxic activities
14 | Cc1cc(=O)cc2c3c1C1OC4C5OC(=O)C(CC2OC(=O)c2nc(C)c(C)nc2C)(C4C)C3C15 [Compound 11f, (3R,4aR,9S,10aS,11S)-5,11-dimethyl-1,7-dioxo-2a,2a1,3,4a,7,9,10,10a1-octahydro-1H-2,4-dioxa-3,10a-methanocyclohepta[bc]cyclopenta[jk]acenaphthylen-9-yl 3,5,6-trimethylpyrazine-2-carboxylate] |  | > 50 µM | 10.8 ± 0.42 µM | 18.6 ± 2.23 µM | 25.9 ± 0.68 µM | cytotoxic activities against three other cancer cell lines (result in words) [5]: weak cytotoxic activities
15 | Cc1cc(=O)cc2c3c1C1OC4C5OC(=O)C(CC2O)(C4C)C3C15 [Compound 12, (3R,4aR,9R,10aS,11S)-9-hydroxy-5,11-dimethyl-2a,3,4a,9,10,10a1-hexahydro-1H-2,4-dioxa-3,10a-methanocyclohepta[bc]cyclopenta[jk]acenaphthylene-1,7(2a1H)-dione] |  |  |  |  |  | IC50 ([1]; MTT, 48 h, Huh-7 cells): > 50 µM; IC50 ([2]; MTT, 48 h, HCT-116 cells): 31.9 ± 0.69 µM; IC50 ([3]; MTT, 48 h, A375 cells): 40.4 ± 7.58 µM; IC50 ([4]; MTT, 48 h, A549 cells): 34.7 ± 1.94 µM
16 | Cc1cc(=O)cc2c3c1C1OC4C5OC(=O)C(CC2=O)(C4C)C3C15 [Compound 13, (3R,4aR,10aS,11S)-5,11-dimethyl-2a,3,4a,10a1-tetrahydro-1H-2,4-dioxa-3,10a-methanocyclohepta[bc]cyclopenta[jk]acenaphthylene-1,7,9(2a1H,10H)-trione] |  | > 50 µM | > 50 µM | > 50 µM | > 50 µM | IC50 [5]: > 50 µM
